Reference: the supplement of paper PMC10331698
± gives the standard deviation of the averaged measurements.

Legend:
Octafluoroadipic acid = compound: O=C(O)C(F)(F)C(F)(F)C(F)(F)C(F)(F)C(=O)O [Octafluoroadipic acid] (in DMSO); assay: level (log10 ratio to DMSO vehicle control); higher = higher biomarker level / cell amount than vehicle control
Protocol: (§1)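 BioMAP Diversity Plus panel of 12 human primary cell co-culture systems (3C, 4H, LPS, SAg, BT, BF4T, BE3C, CASM3C, HDF3CGF, KF3CT, MyoF, Mphg). Compounds were added 1 h before stimulation and left for 24 h (MyoF 48 h; BT 72 h for soluble read-outs or 6 d for IgG). Biomarkers were read by ELISA, cytotoxicity by SRB, PBMC viability and proliferation by Alamar Blue. Each well value was divided by the mean of 8 DMSO control wells on the same plate and log10 transformed; duplicate blinded samples were tested at 4 concentrations.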

[1] = compound: OCC(F)(F)C(F)(F)C(F)(F)C(F)(F)C(F)(F)C(F)(F)CO [1H,1H,8H,8H-Perfluorooctane-1,8-diol] (in DMSO); assay: as above
Protocol: as §1

Test System | level (log10) (Octafluoroadipic acid; 6700 nM) | level (log10) (Octafluoroadipic acid; 20000 nM) | level (log10) (Octafluoroadipic acid; 60000 nM) | level (log10) ([1]; 6700 nM) | level (log10) ([1]; 20000 nM) | level (log10) ([1]; 60000 nM)
3C:CD87/uPAR | -0.023 ± 0.0057 | -0.0175 ± 0.025 | -0.014 ± 0.021 | -0.0245 ± 0.026 | -0.0125 ± 0.0092 | -0.019 ± 0.0028
3C:CXCL8/IL-8 | 0.001 ± 0.024 | -0.0095 ± 0.005 | 0.0215 ± 0.025 | -0.0045 ± 0.0021 | -0.0055 ± 0.0064 | 0.0245 ± 0.023
3C:CXCL9/MIG | -0.002 ± 0.0028 | -0.0095 ± 0.015 | 0.006 ± 0.0085 | 0.0015 ± 0.0035 | -0.0025 ± 0.005 | 0.0105 ± 0.013
3C:HLA-DR | -0.007 ± 0.0099 | -0.004 ± 0.021 | 0.0035 ± 0.0078 | -0.0115 ± 0.015 | -0.007 ± 0.0085 | -0.0175 ± 0.026
3C:Proliferation | -0.0705 ± 0.005 | 0.016 ± 0.013 | -0.007 ± 0.03 | -0.059 ± 0.024 | -0.0565 ± 0.013 | -0.106 ± 0.042
3C:SRB | -0.007 ± 0.016 | -0.0045 ± 0.011 | -0.016 ± 0.0028 | 0.012 ± 0.017 | 0.0035 ± 0.025 | -0.0045 ± 0.04
4H:CCL2/MCP-1 | -0.03 ± 0.018 | -0.0365 ± 0.025 | 0.03 ± 0.024 | -0.058 ± 0.04 | -0.0485 ± 0.018 | -0.012 ± 0.02
4H:CCL26/Eotaxin-3 | 0.022 ± 0.016 | 0.0185 ± 0.0092 | 0.016 ± 0.027 | 0.0095 ± 0.019 | 0.0125 ± 0.019 | 0.0125 ± 0.0021
4H:CD62P/P-selectin | -0.0075 ± 0.043 | 0.0065 ± 0.042 | -0.007 ± 0.059 | -0.039 ± 0.0028 | 0.004 ± 0.011 | 0.0355 ± 0.0021
4H:CD87/uPAR | 0.04 ± 0.0071 | 0.039 ± 0.011 | 0.0345 ± 0.0064 | -0.013 ± 0.0014 | -0.0065 ± 0.0021 | -0.03 ± 0.017
4H:CD106/VCAM-1 | -0.003 ± 0.0028 | -0.007 ± 0.018 | -0.007 ± 0.017 | -0.0295 ± 0.005 | 0.015 ± 0.023 | -0.007 ± 0.0085
4H:SRB | -0.002 ± 0.013 | 0.0025 ± 0.00071 | -0.0105 ± 0.0035 | 0.0105 ± 0.0021 | 0.006 ± 0.0071 | -0.01 ± 0.025
4H:VEGFR2 | 0.0205 ± 0.029 | 0.0085 ± 0.05 | 0.0155 ± 0.042 | -0.0165 ± 0.042 | 0.01 ± 0.018 | 0.047 ± 0.068
BE3C:CD54/ICAM-1 | -0.0085 ± 0.0078 | -0.0045 ± 0.013 | 0.01 ± 0.031 | 0.013 ± 0.0057 | 0.0185 ± 0.018 | -0.003 ± 0.03
BE3C:CD87/uPAR | -0.0115 ± 0.00071 | 0.0035 ± 0.00071 | 0.0125 ± 0.018 | -0.002 ± 0.0085 | 0.026 ± 0.0085 | -0.0195 ± 0.00071
BE3C:CXCL8/IL-8 | 0.0325 ± 0.0092 | 0.0355 ± 0.021 | 0.058 ± 0.068 | -0.021 ± 0.027 | -0.0325 ± 0.023 | -0.0245 ± 0.066
BE3C:CXCL9/MIG | 0.0105 ± 0.013 | 0.012 | 0.0075 ± 0.016 | 0.004 ± 0.0085 | 0 ± 0.016 | -0.006 ± 0.0071
